Laboratory results: patent US20160158200A1, “Combinations of Hepatitis C Virus Inhibitors” (priority 2013, published 2016)

Tested on: HCV genotype-1a variant with glutamine 30 changed to glutamate in the NS5A protein
Type: cell-based
Details: test compound titrated with BMS-790052 fixed at 200 nM; genotype 1a Q30E replicon
Description: The NS5A synergistic inhibitory effect of test compounds can be determined using various amounts of an NS5A-targeting compound with titration of a second compound of interest. […] In one embodiment, the HCV genotype strain can be genotype 1a containing a change at amino acid 30 of the NS5A protein consisting of glutamine to glutamate. The test compound can be chosen from compounds listed above or from others present in the literature.

CC(C)(C)OC(=O)N1CCCCC1(C)C(=O)N[C@H](c1nc(-c2ccc(-c3ccc(-c4c[nH]c([C@@H](NC(=O)C5(C)CCCCN5C(=O)OC(C)(C)C)C(C)(C)C)n4)cc3)cc2)c[nH]1)C(C)(C)C (single isomer, unassigned) [Compound L-46a]
Fold-Synergistic 1a (Q30E): >100 fold

CC(C)(C)OC(=O)N1CCCCC1(C)C(=O)N[C@H](c1nc(-c2ccc(-c3ccc(-c4c[nH]c([C@@H](NC(=O)C5(C)CCCCN5C(=O)OC(C)(C)C)C(C)(C)C)n4)cc3)cc2)c[nH]1)C(C)(C)C (single isomer, unassigned) [Compound L-46b]
Fold-Synergistic 1a (Q30E): >100 fold

CC(C)(C)OC(=O)N1CCCCC1(C)C(=O)N[C@H](c1nc(-c2ccc(-c3ccc(-c4c[nH]c([C@@H](NC(=O)C5(C)CCCCN5C(=O)OC(C)(C)C)C(C)(C)C)n4)cc3)cc2)c[nH]1)C(C)(C)C (single isomer, unassigned) [Compound L-46c]
Fold-Synergistic 1a (Q30E): >100 fold

CC(C)(C)C(NC(=O)C1(C)CC1(F)F)c1nc(-c2ccc(-c3ccc(-c4c[nH]c(C(NC(=O)C5(C)CC5(F)F)C(C)(C)C)n4)cc3)cc2)c[nH]1 (single isomer, unassigned) [Compound L-58a]
Fold-Synergistic 1a (Q30E): >100 fold

CC(C)(C)C(NC(=O)C1(C)CC1(F)F)c1nc(-c2ccc(-c3ccc(-c4c[nH]c(C(NC(=O)C5(C)CC5(F)F)C(C)(C)C)n4)cc3)cc2)c[nH]1 (single isomer, unassigned) [Compound L-58b]
Fold-Synergistic 1a (Q30E): >100 fold

CC(C)(C)C(NC(=O)C(C)(O)C(F)(F)F)c1nc(-c2ccc(-c3ccc(-c4c[nH]c(C(NC(=O)C(C)(O)C(F)(F)F)C(C)(C)C)n4)cc3)cc2)c[nH]1.O=C(O)C(F)(F)F.O=C(O)C(F)(F)F (single isomer, unassigned) [Compound L-66a]
Fold-Synergistic 1a (Q30E): >100 fold

CC(C)(C)C(NC(=O)C(C)(O)C(F)(F)F)c1nc(-c2ccc(-c3ccc(-c4c[nH]c(C(NC(=O)C(C)(O)C(F)(F)F)C(C)(C)C)n4)cc3)cc2)c[nH]1.O=C(O)C(F)(F)F.O=C(O)C(F)(F)F (single isomer, unassigned) [Compound L-66b]
Fold-Synergistic 1a (Q30E): >100 fold

CC(C)(C)[C@H](NC(=O)C(C)(O)C1(C)CC1)c1nc(-c2ccc(-c3ccc(-c4c[nH]c([C@@H](NC(=O)C(C)(O)C5(C)CC5)C(C)(C)C)n4)cc3)cc2)c[nH]1 (single isomer, unassigned) [Compound L-93a]
Fold-Synergistic 1a (Q30E): >100 fold

CC(C)(C)[C@H](NC(=O)C(C)(O)C1(C)CC1)c1nc(-c2ccc(-c3ccc(-c4c[nH]c([C@@H](NC(=O)C(C)(O)C5(C)CC5)C(C)(C)C)n4)cc3)cc2)c[nH]1 (single isomer, unassigned) [Compound L-93c]
Fold-Synergistic 1a (Q30E): >100 fold

CC(C)(C)[C@H](NC(=O)C1CCCCC1CO)c1nc(-c2ccc(-c3ccc(-c4c[nH]c([C@@H](NC(=O)C5CCCCC5CO)C(C)(C)C)n4)cc3)cc2)c[nH]1 (single isomer, unassigned) [Compound L-141a]
Fold-Synergistic 1a (Q30E): >100 fold

CC(C)(C)[C@H](NC(=O)C1CCCCC1CO)c1nc(-c2ccc(-c3ccc(-c4c[nH]c([C@@H](NC(=O)C5CCCCC5CO)C(C)(C)C)n4)cc3)cc2)c[nH]1 (single isomer, unassigned) [Compound L-141b]
Fold-Synergistic 1a (Q30E): >100 fold

CC(C)(C)[C@H](NC(=O)C1CCCCC1CO)c1nc(-c2ccc(-c3ccc(-c4c[nH]c([C@@H](NC(=O)C5CCCCC5CO)C(C)(C)C)n4)cc3)cc2)c[nH]1 (single isomer, unassigned) [Compound L-141c]
Fold-Synergistic 1a (Q30E): >100 fold

CC(C)(F)C(NC(=O)C1CCC(F)(F)CC1)c1nc(-c2ccc(-c3ccc(-c4c[nH]c(C(NC(=O)C5CCC(F)(F)CC5)C(C)(C)F)n4)cc3)cc2)c[nH]1 (single isomer, unassigned) [Compound N-106A]
Fold-Synergistic 1a (Q30E): >100 fold

CC(C)(F)C(NC(=O)C1CCC(F)(F)CC1)c1nc(-c2ccc(-c3ccc(-c4c[nH]c(C(NC(=O)C5CCC(F)(F)CC5)C(C)(C)F)n4)cc3)cc2)c[nH]1 (single isomer, unassigned) [Compound N-106B]
Fold-Synergistic 1a (Q30E): >100 fold

CC(C)(F)C(NC(=O)C1CCC(F)(F)CC1)c1nc(-c2ccc(-c3ccc(-c4c[nH]c(C(NC(=O)C5CCC(F)(F)CC5)C(C)(C)F)n4)cc3)cc2)c[nH]1 (single isomer, unassigned) [Compound N-106C]
Fold-Synergistic 1a (Q30E): >100 fold

CC(C)(C)C(=O)NC(c1nc(-c2ccc(-c3ccc(-c4c[nH]c(C(NC(=O)C(C)(C)C)C5(C(F)(F)F)CC5)n4)cc3)cc2)c[nH]1)C1(C(F)(F)F)CC1 (single isomer, unassigned) [Compound N-107A]
Fold-Synergistic 1a (Q30E): >100 fold

CC(C)(C)C(=O)NC(c1nc(-c2ccc(-c3ccc(-c4c[nH]c(C(NC(=O)C(C)(C)C)C5(C(F)(F)F)CC5)n4)cc3)cc2)c[nH]1)C1(C(F)(F)F)CC1 (single isomer, unassigned) [Compound N-107B]
Fold-Synergistic 1a (Q30E): >10 fold

O=C(NC(c1nc(-c2ccc(-c3ccc(-c4c[nH]c(C(NC(=O)C5CCC(F)(F)CC5)C5(C(F)(F)F)CC5)n4)cc3)cc2)c[nH]1)C1(C(F)(F)F)CC1)C1CCC(F)(F)CC1.O=C(O)C(F)(F)F (single isomer, unassigned) [Compound N-109B]
Fold-Synergistic 1a (Q30E): >100 fold

CC(C)(C(=O)N[C@H](c1nc(-c2ccc(-c3ccc(-c4c[nH]c([C@@H](NC(=O)C(C)(C)C(O)c5ccccc5F)C(C)(C)C)n4)cc3)cc2)c[nH]1)C(C)(C)C)C(O)c1ccccc1F (single isomer, unassigned) [Compound N-124A]
Fold-Synergistic 1a (Q30E): >100 fold

CC(C)(C(=O)N[C@H](c1nc(-c2ccc(-c3ccc(-c4c[nH]c([C@@H](NC(=O)C(C)(C)C(O)c5ccccc5F)C(C)(C)C)n4)cc3)cc2)c[nH]1)C(C)(C)C)C(O)c1ccccc1F (single isomer, unassigned) [Compound N-124B]
Fold-Synergistic 1a (Q30E): >100 fold

CC(C)(C(=O)N[C@H](c1nc(-c2ccc(-c3ccc(-c4c[nH]c([C@@H](NC(=O)C(C)(C)C(O)c5ccccc5F)C(C)(C)C)n4)cc3)cc2)c[nH]1)C(C)(C)C)C(O)c1ccccc1F (single isomer, unassigned) [Compound N-124C]
Fold-Synergistic 1a (Q30E): >100 fold

COc1ccccc1C(O)C(C)(C)C(=O)N[C@H](c1nc(-c2ccc(-c3ccc(-c4c[nH]c([C@@H](NC(=O)C(C)(C)C(O)c5ccccc5OC)C(C)(C)C)n4)cc3)cc2)c[nH]1)C(C)(C)C (single isomer, unassigned) [Compound N-125A]
Fold-Synergistic 1a (Q30E): >100 fold

COc1ccccc1C(O)C(C)(C)C(=O)N[C@H](c1nc(-c2ccc(-c3ccc(-c4c[nH]c([C@@H](NC(=O)C(C)(C)C(O)c5ccccc5OC)C(C)(C)C)n4)cc3)cc2)c[nH]1)C(C)(C)C (single isomer, unassigned) [Compound N-125B]
Fold-Synergistic 1a (Q30E): >100 fold

COc1ccccc1C(O)C(C)(C)C(=O)N[C@H](c1nc(-c2ccc(-c3ccc(-c4c[nH]c([C@@H](NC(=O)C(C)(C)C(O)c5ccccc5OC)C(C)(C)C)n4)cc3)cc2)c[nH]1)C(C)(C)C (single isomer, unassigned) [Compound N-125C]
Fold-Synergistic 1a (Q30E): >100 fold

CC(C)(C)[C@H](NC(=O)C1(C(O)c2ccccc2)CC1)c1nc(-c2ccc(-c3ccc(-c4c[nH]c([C@@H](NC(=O)C5(C(O)c6ccccc6)CC5)C(C)(C)C)n4)cc3)cc2)c[nH]1 (single isomer, unassigned) [Compound N-126A]
Fold-Synergistic 1a (Q30E): >100 fold

CC(C)(C)[C@H](NC(=O)C1(C(O)c2ccccc2)CC1)c1nc(-c2ccc(-c3ccc(-c4c[nH]c([C@@H](NC(=O)C5(C(O)c6ccccc6)CC5)C(C)(C)C)n4)cc3)cc2)c[nH]1 (single isomer, unassigned) [Compound N-126B]
Fold-Synergistic 1a (Q30E): >100 fold

CC(C)(C)[C@H](NC(=O)C1(C(O)c2ccccc2)CC1)c1nc(-c2ccc(-c3ccc(-c4c[nH]c([C@@H](NC(=O)C5(C(O)c6ccccc6)CC5)C(C)(C)C)n4)cc3)cc2)c[nH]1 (single isomer, unassigned) [Compound N-126C]
Fold-Synergistic 1a (Q30E): >100 fold

CC(C)(C(=O)N[C@H](c1nc(-c2ccc(-c3ccc(-c4c[nH]c([C@@H](NC(=O)C(C)(C)C(O)c5ccccc5)C(C)(C)C)n4)cc3)cc2)c[nH]1)C(C)(C)C)C(O)c1ccccc1 (single isomer, unassigned) [Compound N-127A]
Fold-Synergistic 1a (Q30E): >100 fold

CC(C)(C(=O)N[C@H](c1nc(-c2ccc(-c3ccc(-c4c[nH]c([C@@H](NC(=O)C(C)(C)C(O)c5ccccc5)C(C)(C)C)n4)cc3)cc2)c[nH]1)C(C)(C)C)C(O)c1ccccc1 (single isomer, unassigned) [Compound N-127B]
Fold-Synergistic 1a (Q30E): >100 fold

CC(C)(C(=O)N[C@H](c1nc(-c2ccc(-c3ccc(-c4c[nH]c([C@@H](NC(=O)C(C)(C)C(O)c5ccccc5)C(C)(C)C)n4)cc3)cc2)c[nH]1)C(C)(C)C)C(O)c1ccccc1 (single isomer, unassigned) [Compound N-127C]
Fold-Synergistic 1a (Q30E): >100 fold

CC(C)(C(=O)N[C@H](c1nc(-c2ccc(-c3ccc(-c4c[nH]c([C@@H](NC(=O)C(C)(C)C(O)c5ccccn5)C(C)(C)C)n4)cc3)cc2)c[nH]1)C(C)(C)C)C(O)c1ccccn1 (single isomer, unassigned) [Compound N-128A]
Fold-Synergistic 1a (Q30E): >100 fold

CC(C)(C(=O)N[C@H](c1nc(-c2ccc(-c3ccc(-c4c[nH]c([C@@H](NC(=O)C(C)(C)C(O)c5ccccn5)C(C)(C)C)n4)cc3)cc2)c[nH]1)C(C)(C)C)C(O)c1ccccn1 (single isomer, unassigned) [Compound N-128B]
Fold-Synergistic 1a (Q30E): >100 fold
